Measured values reported in paper PMC3407958 (Pharmacotherapy, 2010).
Read-outs that look alike come from different tables or passages of the source. Marks after values point to notes of the source that are not given here.

Assays:
[1] = human, in vivo
clinical = details: human, in vivo
[2] = human, in vivo; remark: listed apart in the source
CYP3A = type: in vivo, human (healthy volunteers); details: for Cl/F / AUC(0-inf): geometric mean (90% CI); for AUC(0-inf): AUC0-∞, midazolam 8 mg single oral dose
[3] = tested on: intestinal and hepatic CYP3A; details: cited from earlier work
[4] = three weeks of garlic caplet supplementation; cited from earlier work
[5] = Post-Echinacea/Pre-Echinacea, GMR (90% CI)
[6] = Post-Echinacea/Pre-Echinacea, GMR (90% CI), listed as Midazolam
[7] = midazolam 8 mg oral, 28 days of echinacea, P > 0.05

Structure (SMILES): Cc1cccc(C)c1OCC(=O)N[C@@H](Cc1ccccc1)[C@@H](O)C[C@H](Cc1ccccc1)NC(=O)[C@H](C(C)C)N1CCCNC1=O [lopinavir]
- T ½ [1]: 9.5 (7.4–11.6) hr
- Tmax (clinical): 2 h
- Tmax [2]: 2 h

Structure (SMILES): Cc1ncc2n1-c1ccc(Cl)cc1C(c1ccccc1F)=NC2 [midazolam]
- Cl/F (CYP3A; Post-Echinacea (28 days), midazolam 8 mg oral): 77 (55–98) mL/hr
- Tmax (CYP3A; Post-Echinacea (28 days), midazolam 8 mg oral, median (range)): 0.5 (0.5–1.5) ^c hr
- AUC0-∞ geometric mean ratio (CYP3A; [5]): 0.73 (0.61, 0.85)
- Cl/F geometric mean ratio (CYP3A; [5]): 1.37 (1.10, 1.63)
- Cmax geometric mean ratio (CYP3A; [5]): 0.77 (0.58–0.96)
- T ½ geometric mean ratio (CYP3A; [5]): 0.55 (0.40, 0.70)
- AUC0-∞ geometric mean ratio (CYP3A; [6]): 0.73 (0.61–0.85)
- Cl/F geometric mean ratio (CYP3A; [6]): 1.37 (1.10–1.63)
- T ½ geometric mean ratio (CYP3A; [6]): 0.55 (0.40–0.70)
- Cl/F (CYP3A; Pre-Echinacea, midazolam 8 mg oral): 56 (46–66) mL/hr
- Change in midazolam exposure after E purpurea (CYP3A; after 28 days of E purpurea, P = 0.008): −27%
- Increase in midazolam apparent oral clearance after E purpurea (CYP3A; after 28 days of E purpurea, P = 0.02): 37%
- Reduction of midazolam half-life after E purpurea (CYP3A; after 28 days of E purpurea, P = 0.051): 45%
- Tmax (CYP3A; human, plasma, po, 8 mg): 0.5 h
- AUC(0-inf) (CYP3A; human, plasma, po, 8 mg, Post-Echinacea (28 days, 500 mg three times daily)): 0.104 µg·h/mL
- AUC(0-inf) (CYP3A; human, plasma, po, 8 mg, Pre-Echinacea): 0.143 µg·h/mL
- Change of Cmax after echinacea administration (CYP3A; [7]): unchanged
- Change of Tmax after echinacea administration (CYP3A; [7]): unchanged
- Increase in intestinal availability of midazolam ([3]; after E purpurea 1600 mg total daily dose for 8 days): 85%
- Increase in oral availability of midazolam ([3]; after echinacea 400 mg 4 times daily for 8 days, P = 0.028): ~43%

Structure (SMILES): CC(C)c1nc(CN(C)C(=O)N[C@H](C(=O)N[C@@H](Cc2ccccc2)C[C@H](O)[C@H](Cc2ccccc2)NC(=O)OCc2cncs2)C(C)C)cs1 [ritonavir]
- T ½ [1]: 5.34 (4.46–6.22) hr
- Tmax [1]: 1.8 (0–4.0) ^c hr

Structure (SMILES): CC(C)(C)NC(=O)[C@@H]1C[C@@H]2CCCC[C@@H]2CN1C[C@@H](O)[C@H](Cc1ccccc1)NC(=O)[C@H](CC(N)=O)NC(=O)c1ccc2ccccc2n1 [saquinavir]
- Decrease in AUC of saquinavir [4]: 51%
